Reference: ChEMBL document CHEMBL1201862, “PubChem BioAssay data set” (2004)
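Assay format: 96-well plates, 48-hour exposure. GI50 marks 50% less growth.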 The source made the active and inactive calls. No stated cut-off is given here; in the data, active = GI50 up to about 1.1 µM and inactive = higher.

Key:
Assay in all cases: NCI anticancer screen, dose series, 48 h
M19-MEL = tested on: M19-MEL
XF498 = tested on: XF498
EKVX = tested on: EKVX
KM12 = tested on: KM12
CAKI-1 = tested on: CAKI-1
SF-295 = tested on: SF-295
UO-31 = tested on: UO-31
OVCAR-8 = tested on: OVCAR-8
HT-29 = tested on: HT-29
NCI-H23 = tested on: NCI-H23
SK-MEL-2 = tested on: SK-MEL-2
COLO 205 = tested on: COLO 205
SK-MEL-28 = tested on: SK-MEL-28
A498 = tested on: A498
786-0 = tested on: 786-0
HL-60 = tested on: HL-60
SNB-75 = tested on: SNB-75
SK-OV-3 = tested on: SK-OV-3
SNB-19 = tested on: SNB-19
CCRF-CEM = tested on: CCRF-CEM
HOP-92 = tested on: HOP-92
DMS-114 = tested on: DMS-114
LOX IMVI = tested on: LOX IMVI
SR = tested on: SR
RXF 393 = tested on: RXF 393
M14 = tested on: M14
NCI-H226 = tested on: NCI-H226
Malme-3M = tested on: Malme-3M
SW-620 = tested on: SW-620
U-251 = tested on: U-251
HOP-62 = tested on: HOP-62
TK-10 = tested on: TK-10
RPMI-8226 = tested on: RPMI-8226
SF-539 = tested on: SF-539
MOLT-4 = tested on: MOLT-4
LXFL 529 = tested on: LXFL 529
OVCAR-4 = tested on: OVCAR-4
OVCAR-5 = tested on: OVCAR-5
SF-268 = tested on: SF-268
K562 = tested on: K562
A549 = tested on: A549
HCT-15 = tested on: HCT-15
NCI-H522 = tested on: NCI-H522
HOP-18 = tested on: HOP-18
ACHN = tested on: ACHN
NCI-H460 = tested on: NCI-H460
DLD-1 = tested on: DLD-1
UACC-257 = tested on: UACC-257
SK-MEL-5 = tested on: SK-MEL-5
KM-20L2 = tested on: KM-20L2
OVCAR-3 = tested on: OVCAR-3
DMS-273 = tested on: DMS-273
HCC 2998 = tested on: HCC 2998
SNB-78 = tested on: SNB-78
HCT-116 = tested on: HCT-116
UACC-62 = tested on: UACC-62
SN12C = tested on: SN12C
IGROV-1 = tested on: IGROV-1

CC1=C(c2cc(C(=O)Nc3ccc(Cl)c(Cl)c3)nc(N)n2)Sc2ccccc2N1
GI50 (M19-MEL): > 100 µM (inactive) | GI50 (XF498): > 100 µM (inactive) | GI50 (EKVX): 98.6 µM (inactive) | GI50 (KM12): > 100 µM (inactive) | GI50 (CAKI-1): > 100 µM (inactive) | GI50 (SF-295): > 100 µM (inactive) | GI50 (UO-31): > 100 µM (inactive) | GI50 (OVCAR-8): > 100 µM (inactive) | GI50 (HT-29): > 100 µM (inactive) | GI50 (NCI-H23): > 100 µM (inactive) | GI50 (SK-MEL-2): > 100 µM (inactive) | GI50 (COLO 205): > 100 µM (inactive) | GI50 (SK-MEL-28): > 100 µM (inactive) | GI50 (A498): > 100 µM (inactive) | GI50 (786-0): > 100 µM (inactive) | GI50 (HL-60): > 100 µM (inactive) | GI50 (SNB-75): > 100 µM (inactive) | GI50 (SK-OV-3): > 100 µM (inactive) | GI50 (SNB-19): > 100 µM (inactive) | GI50 (CCRF-CEM): > 100 µM (inactive) | GI50 (HOP-92): > 100 µM (inactive) | GI50 (DMS-114): > 100 µM (inactive) | GI50 (LOX IMVI): > 100 µM (inactive) | GI50 (SR): > 100 µM (inactive) | GI50 (RXF 393): 89.7 µM (inactive) | GI50 (M14): > 100 µM (inactive) | GI50 (NCI-H226): > 100 µM (inactive) | GI50 (Malme-3M): > 100 µM (inactive) | GI50 (SW-620): > 100 µM (inactive) | GI50 (U-251): > 100 µM (inactive) | GI50 (HOP-62): > 100 µM (inactive) | GI50 (TK-10): > 100 µM (inactive) | GI50 (RPMI-8226): > 100 µM (inactive) | GI50 (SF-539): > 100 µM (inactive) | GI50 (MOLT-4): > 100 µM (inactive) | GI50 (LXFL 529): > 100 µM (inactive) | GI50 (OVCAR-4): > 100 µM (inactive) | GI50 (OVCAR-5): > 100 µM (inactive) | GI50 (SF-268): > 100 µM (inactive) | GI50 (K562): 62.5 µM (inactive) | GI50 (A549): > 100 µM (inactive) | GI50 (HCT-15): > 100 µM | GI50 (NCI-H522): > 100 µM (inactive) | GI50 (HOP-18): > 100 µM (inactive) | GI50 (ACHN): > 100 µM (inactive) | GI50 (NCI-H460): > 100 µM (inactive) | GI50 (DLD-1): > 100 µM (inactive) | GI50 (UACC-257): > 100 µM (inactive) | GI50 (SK-MEL-5): > 100 µM (inactive) | GI50 (KM-20L2): > 100 µM (inactive) | GI50 (OVCAR-3): > 100 µM (inactive) | GI50 (DMS-273): > 100 µM (inactive) | GI50 (HCC 2998): > 100 µM (inactive) | GI50 (SNB-78): > 100 µM (inactive) | GI50 (HCT-116): > 100 µM (inactive) | GI50 (UACC-62): > 100 µM (inactive) | GI50 (SN12C): > 100 µM (inactive) | GI50 (IGROV-1): > 100 µM (inactive)
